Measurements: patent publication US20250163057A1, “DCN-1 MODULATING COMPOUNDS AND METHODS OF USE THEREOF” (Cellarity, Inc., priority 2023, published 2025)
Read-outs that look alike come from different tables or passages of the source.

Experiments:
[1] = tested on: Cullin-3 (CUL3) neddylation; experiment: AlphaLISA assay for Cullin-3 (CUL3) neddylation in TF 1 cells; format: cell-based; details: 3 hours treatment; for IC50: Homo sapiens
Procedure, shortened: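 Neddylated CUL3 was quantified by AlphaLISA in lysates of TF 1 cells exposed for 3 h to test compound in IMDM without supplements. Percent inhibition set between vehicle and 1 μM DI-1548 positive control; IC50 derived by Hill-equation fitting of dose-response curves.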

[2] = biological target: DCN1 (DCUND1) protein PONY domain (Homo sapiens (Human), UniProt Q96GG9); experiment: TR-FRET assay, DCN1 binding with FAM-labeled probe
DCN1 (DCUND1) protein PONY domain, sequence (Q96GG9 60-248): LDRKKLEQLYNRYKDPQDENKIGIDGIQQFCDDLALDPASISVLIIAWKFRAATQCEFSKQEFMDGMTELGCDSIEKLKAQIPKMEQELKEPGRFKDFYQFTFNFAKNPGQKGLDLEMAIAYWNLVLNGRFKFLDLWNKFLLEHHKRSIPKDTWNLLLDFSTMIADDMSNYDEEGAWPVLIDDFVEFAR
Procedure, shortened: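 Binding was read as the TR-FRET ratio between a FAM-tagged inhibitor probe and Tb-labeled biotinylated E. coli-expressed DCN1 PONY domain, measured 1, 5 and 24 h after compound addition. The two setups used 5 nM protein/20 nM FAM-probe or 0.31 nM protein/900 nM total probe (100 nM labeled), in TritonX buffer with 200 mM NaCl.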

[3] = 24 hr after treatment with compound, read-out: TR FRET IC50 24 hr
[4] = TR FRET IC50 1 hr (nM), 1 hr after treatment with compound
[5] = read-out: TR FRET IC50 1 hr, 1 hr after treatment with compound

Row | Structure (SMILES) | IC50 ([1]; TF-1, 3 h) | IC50 [2, 3] | IC50 [2, 4] | IC50 [2, 5] | IC50 [1] | Neddylation IC50 (nM) [1]
1 | CCN1C(=O)[C@@H](NC(=O)c2nccc(C(F)(F)F)n2)[C@H](c2ccc(F)cc2)c2c(CC(=O)N(C)CC#N)nn(-c3ccccc3)c21 [Compound I-640, N-((4R,5S)-3-(2-((cyanomethyl)(methyl)amino)-2-oxoethyl)-7-ethyl-4-(4-fluorophenyl)-6-oxo-1-phenyl-4,5,6,7-tetrahydro-1H-pyrazolo[3,4-b]pyridin-5-yl)-4-(trifluoromethyl)pyrimidine-2-carboxamide] | 100 to 1000 nM | 1000 to 3000 nM | 1000 to 3000 nM | – | – | –
2 | CCN1C(=O)[C@@H](NC(=O)c2cccc(C(F)(F)F)c2)[C@H](c2ccc(F)cc2)c2c(CNC(=O)C(C)C#N)nn(-c3ccccc3)c21 (stereo partly drawn) [Compound I-641] | > 1000 nM | 200 to 1000 nM | 200 to 1000 nM | – | – | –
3 | CCN1C(=O)[C@H](NC(=O)c2cccc(C(F)(F)F)c2)C(C2CC2)c2c(C(=O)N3CCC[C@H]3C#N)nn(-c3ccccc3)c21 (stereo partly drawn) [Compound I-642] | > 1000 nM | 1000 to 3000 nM | 1000 to 3000 nM | – | – | –
4 | CCN1C(=O)[C@@H](NC(=O)c2cccc(C(F)(F)F)c2)[C@@H](c2ccc(F)cc2)c2c(CN(C#N)CCCN(C)C3COC3)nn(-c3ccccc3)c21 [Compound I-646] | ≤ 100 nM | ≤ 200 nM | – | ≤ 200 nM | – | –
5 | CCN1C(=O)[C@H](NC(=O)c2cccc(C(F)(F)F)c2)[C@H](c2ccc(F)cc2)c2c(C(=O)N3CCC[C@H]3C#N)nn(-c3cccc(OCCN4CC5(COC5)C4)c3)c21 [Compound I-647] | > 1000 nM | 1000 to 3000 nM | 1000 to 3000 nM | – | – | –
6 | CCN1C(=O)[C@H](NC(=O)c2cccc(C(F)(F)F)c2)[C@H](c2ccc(F)cc2)c2c(C(=O)N3CCC[C@H]3C#N)nn(-c3cccc(OCCN4CCN(C5COC5)CC4)c3)c21 [Compound I-648] | > 1000 nM | 1000 to 3000 nM | 1000 to 3000 nM | – | – | –
7 | CCN1C(=O)[C@@H](NC(=O)c2cccc(C(F)(F)F)c2)[C@@H](c2ccc(F)cc2)c2c(C(=O)N(C)[C@@H](C#N)CCN(C)C3COC3)nn(C3CCOCC3)c21 [Compound I-654] | ≤ 100 nM | ≤ 200 nM | – | ≤ 200 nM | – | –
8 | CCN1C(=O)[C@@H](NC(=O)c2csc3c2CCC(C)C3)[C@@H](C2CC2)c2c(C(=O)N3[C@H](C#N)C[C@H]4C[C@H]43)nn(C3CCOCC3)c21 (stereo partly drawn) [Compound I-656] | – | ≤ 200 nM | – | ≤ 200 nM | ≤ 100 nM | –
9 | CCN1C(=O)[C@@H](NC(=O)c2cccc(C(F)(F)F)c2)[C@@H](C2CC2)c2c(C(=O)N3CCOC[C@@H]3C#N)nn(-c3ccccc3)c21 [Compound I-658] | > 1000 nM | 200 to 1000 nM | 1000 to 3000 nM | – | – | –
10 | CCN1C(=O)[C@@H](NC(=O)c2cccc(C(F)(F)F)c2)[C@@H](C2CC2)c2c(C(=O)N3CCS(=O)(=O)C[C@H]3C#N)nn(-c3ccccc3)c21 [Compound I-659, N-((4S,5S)-3-((R)-3-cyano-1,1-dioxidothiomorpholine-4-carbonyl)-4-cyclopropyl-7-ethyl-6-oxo-1-phenyl-4,5,6,7-tetrahydro-1H-pyrazolo[3,4-b]pyridin-5-yl)-3-(trifluoromethyl)benzamide] | ≤ 100 nM | ≤ 200 nM | – | ≤ 200 nM | – | –
11 | CCN1C(=O)[C@@H](NC(=O)C23CC(C(F)F)(C2)C3)[C@@H](C2CC2)c2c(C(=O)N3[C@H](C#N)C[C@H]4C[C@H]43)nn(C3CCOCC3)c21 [Compound I-662] | > 1000 nM | 1000 to 3000 nM | 1000 to 3000 nM | – | – | –
12 | CCN1C(=O)[C@@H](NC(=O)c2cccc(C(F)(F)F)c2)[C@@H](C2CC2)c2c(C(=O)N(C)[C@@H](C#N)CCN(C)C3COC3)nn(C3CCOCC3)c21 [Compound I-664] | 100 to 1000 nM | 200 to 1000 nM | 200 to 1000 nM | – | – | –
13 | CCN1C(=O)[C@H](NC(=O)c2cccc(C(F)(F)F)c2)[C@H](C2CC2)c2c(C(=O)N3CCC[C@H]3C#N)nn(C3CCOCC3)c21 [Compound I-666] | > 1000 nM | 1000 to 3000 nM | 1000 to 3000 nM | – | – | –
14 | CCN1C(=O)[C@@H](NC(=O)c2ccc3cc[nH]c3c2)[C@@H](C2CC2)c2c(C(=O)N3[C@H](C#N)C[C@H]4C[C@H]43)nn(C3CCOCC3)c21 [Compound I-667] | ≤ 100 nM | ≤ 200 nM | 200 to 1000 nM | – | – | –
15 | CCN1C(=O)[C@@H](NC(=O)c2ccc3nonc3c2)[C@@H](C2CC2)c2c(C(=O)N3[C@H](C#N)C[C@H]4C[C@H]43)nn(C3CCOCC3)c21 [Compound I-668] | 100 to 1000 nM | 1000 to 3000 nM | 1000 to 3000 nM | – | – | –
16 | CCN1C(=O)[C@@H](NC(=O)c2ccc3ncsc3c2)[C@@H](C2CC2)c2c(C(=O)N3[C@H](C#N)C[C@H]4C[C@H]43)nn(C3CCOCC3)c21 [Compound I-669] | 100 to 1000 nM | 200 to 1000 nM | 1000 to 3000 nM | – | – | –

Row | Structure (SMILES) | IC50 ([1]; TF-1, 3 h) | IC50 [2, 3] | IC50 [2, 4] | IC50 [2, 5] | IC50 [1] | Neddylation IC50 (nM) [1]
17 | CCN1C(=O)[C@H](NC(=O)c2cccc(C(F)(F)F)c2)[C@H](C2CC2)c2c(C(=O)N(C)C(C)C#N)nn(-c3ccccc3)c21 (stereo partly drawn) [Compound I-676] | > 1000 nM | 1000 to 3000 nM | 1000 to 3000 nM | – | – | –
18 | CCN1C(=O)[C@H](NC(=O)c2cccc(C(F)(F)F)c2)[C@H](c2ccc(F)cc2)c2c(C(=O)N3CCC[C@H]3C#N)nn(-c3cccc(OCCCN4CCN(C5COC5)CC4)c3)c21 [Compound I-681] | > 1000 nM | 1000 to 3000 nM | 1000 to 3000 nM | – | – | –
19 | CCN1C(=O)[C@@H](NC(=O)c2cccc(C(F)(F)F)c2)[C@@H](C2CC2)c2c(C(=O)N(CC#N)C3CC3)nn(C3CCOCC3)c21 [Compound I-682] | ≤ 100 nM | ≤ 200 nM | 200 to 1000 nM | – | – | –
20 | CCN1C(=O)[C@@H](NC(=O)c2cccc(C(F)(F)F)c2)[C@@H](C2CC2)c2c(C(=O)N(CC#N)CCCN(C)C)nn(C3CCOCC3)c21 [Compound I-683] | ≤ 100 nM | ≤ 200 nM | 200 to 1000 nM | – | – | –
21 | CCN1C(=O)[C@@H](NC(=O)c2ccn(C(F)(F)F)n2)[C@@H](c2ccc(F)cc2)c2c(C(=O)N3CCN(C)CC3C#N)nn(-c3ccccc3)c21 (stereo partly drawn) [Compound I-684, N-((4S,5S)-3-(2-cyano-4-methylpiperazine-1-carbonyl)-7-ethyl-4-(4-fluorophenyl)-6-oxo-1-phenyl-4,5,6,7-tetrahydro-1H-pyrazolo[3,4-b]pyridin-5-yl)-1-(trifluoromethyl)-1H-pyrazole-3-carboxamide] | ≤ 100 nM | ≤ 200 nM | – | ≤ 200 nM | – | –
22 | CCN1C(=O)[C@@H](NC(=O)c2cccc(C(F)(F)F)c2)[C@@H](c2ccc(F)cc2)c2c(COCC#N)nn(-c3ccccc3)c21 [Compound I-685] | 100 to 1000 nM | ≤ 200 nM | – | ≤ 200 nM | – | –
23 | CCN1C(=O)[C@@H](NC(=O)c2cccc(C(F)(F)F)c2)[C@@H](C2CC2)c2c(C(=O)N3CCC[C@H]3C#N)nn(-c3ccccc3)c21 [Compound I-686] | – | ≤ 200 nM | 1000 to 3000 nM | – | – | + +
24 | CCN1C(=O)[C@@H](NC(=O)c2cccc(C(F)(F)F)c2)[C@@H](c2ccc(F)cc2)c2c(C(=O)N3CC[C@H](F)[C@H]3C#N)nn(C3CCOCC3)c21 [Compound I-694, N-((4S,5S)-3-((2R,3S)-2-cyano-3-fluoropyrrolidine-1-carbonyl)-7-ethyl-4-(4-fluorophenyl)-6-oxo-1-(tetrahydro-2H-pyran-4-yl)-4,5,6,7-tetrahydro-1H-pyrazolo[3,4-b]pyridin-5-yl)-3-(trifluoromethyl)benzamide] | ≤ 100 nM | ≤ 200 nM | – | ≤ 200 nM | – | –
25 | CCN1C(=O)[C@@H](NC(=O)c2c(Cl)ccc(OC)c2F)[C@@H](C2CC2)c2c(C(=O)N3[C@H](C#N)C[C@H]4C[C@H]43)nn(C3CCOCC3)c21 [Compound I-697] | > 1000 nM | 1000 to 3000 nM | 1000 to 3000 nM | – | – | –
26 | CCN1C(=O)[C@@H](NC(=O)C(C2CC2)C2CC2)[C@@H](C2CC2)c2c(C(=O)N3[C@H](C#N)C[C@H]4C[C@H]43)nn(C3CCOCC3)c21 [Compound I-699] | > 1000 nM | 1000 to 3000 nM | 1000 to 3000 nM | – | – | –
27 | CCN1C(=O)[C@@H](NC(=O)c2cccc(C(F)(F)F)c2)[C@@H](C2CC2)c2c(C(=O)N3[C@H](C#N)CC[C@@H]3C)nn(C3CCOCC3)c21 [Compound I-700] | 100 to 1000 nM | 200 to 1000 nM | 1000 to 3000 nM | – | – | –
28 | CCN1C(=O)[C@@H](NC(=O)c2cccc(C(F)(F)F)c2)[C@@H](C2CC2)c2c(C(=O)N(CC#N)C3CC3)nn(C3CC3)c21 [Compound I-702] | 100 to 1000 nM | 200 to 1000 nM | 1000 to 3000 nM | – | – | –
29 | CCN1C(=O)[C@@H](NC(=O)c2cccc(C(F)(F)F)c2)[C@@H](C2CC2)c2c(C(=O)N3[C@@H](C#N)C[C@@H]4C[C@@H]43)nn(C3CCOCC3)c21 [Compound I-703, N-((4S,5S)-3-((1S,3R,5S)-3-cyano-2-azabicyclo[3.1.0]hexane-2-carbonyl)-4-cyclopropyl-7-ethyl-6-oxo-1-(tetrahydro-2H-pyran-4-yl)-4,5,6,7-tetrahydro-1H-pyrazolo[3,4-b]pyridin-5-yl)-3-(trifluoromethyl)benzamide] | > 1000 nM | 1000 to 3000 nM | 1000 to 3000 nM | – | – | –
30 | CCN1C(=O)[C@@H](NC(=O)c2ccc3nn[nH]c3c2)[C@@H](C2CC2)c2c(C(=O)N3[C@H](C#N)C[C@H]4C[C@H]43)nn(C3CCOCC3)c21 [Compound I-705] | > 1000 nM | 1000 to 3000 nM | 1000 to 3000 nM | – | – | –
31 | CCN1C(=O)[C@@H](NC(=O)c2ccc3snnc3c2)[C@@H](C2CC2)c2c(C(=O)N3[C@H](C#N)C[C@H]4C[C@H]43)nn(C3CCOCC3)c21 [Compound I-706] | ≤ 100 nM | 200 to 1000 nM | 1000 to 3000 nM | – | – | –
